Measurements taken from patent publication US9151757B2, “Detecting antigen responsive cells in a sample” (Stichting Sanquin Bloedvoorziening, priority 2008, dated 2015).

Tested on: CD8+ T cells in PBMCs
Test: Combinatorial coding MHC multimer flow cytometry of enriched, in vitro expanded PBMCs
Format: cell-based, human
Settings: enriched PBMCs from 27 HLA-A3 positive melanoma patients, after MACS enrichment and short term in vitro expansion

Sequence | CD8+ T cell responses against peptide detected by dual color-encoded pMHC multimer staining
SLYRDPLPR (listed as Homo sapiens) | CD8^+ T cell responses were observed
GTYEGLLRR (listed as Homo sapiens) [Tyrp2 301-309, unknown HLA-A3 associated T cell antigen] | identification of the unknown HLA-A3 associated T cells antigens
HAYIQSLLK (listed as Homo sapiens) | CD8^+ T cell responses were observed
RMYNMVPFF (listed as Homo sapiens) | CD8^+ T cell responses were observed
QLRALDGGNK (listed as Homo sapiens) | CD8^+ T cell responses were observed
